Experimental data: PMC9694488, “Amyloid beta and its naturally occurring N-terminal variants are potent activators of human and mouse formyl peptide receptor 1” (The Journal of Biological Chemistry, 2022)
Entries after “also recorded” stand apart in the source; their conditions may differ.

Columns and labels:
FPR1 and FPR2 = conditions: cited from earlier work
mFpr1 = experiment: Ca2+ imaging, HEK293T transiently transfected with mFpr1; assay type: cell-based, mouse; conditions: n = 3, N = 1; for threshold for minimal detectable activation, mFpr1: Ca2+ imaging, transfected HEK293T + Gα16, Calbryte 520, C1 buffer pH 7.2; for sensitivity relative to full-length Aβ1-42, mFpr1: concentration response curves
mFpr2 = experiment: Ca2+ imaging, HEK293T transiently transfected with mFpr2; assay type: cell-based, mouse; conditions: n = 3, N = 1; for threshold for minimal detectable activation, mFpr2: Ca2+ imaging, transfected HEK293T + Gα16, Calbryte 520, C1 buffer pH 7.2; for mFpr2 response concentration: concentration response curves
Experimental: (§2) All peptides were thawed at room temperature approximately 1 h before each functional experiment, as this time was needed to prepare the compound plates for each measurement.
(§3) HEK293T cells (ATCC) were cultured in Dulbecco’s Modified Eagle’s medium (DMEM, Biowest) supplemented with 10% (v/v) heat-inactivated fetal calf serum (FCS, Pan Biotech), 1 unit/ml penicillin-streptomycin (Biowest), and 2 mM L-glutamine (Biowest) until 80% confluence. For transfection, approximately 2000 cells were seeded in each well of poly-D-lysine–coated (PDL) (10 μg/ml in PBS, Sigma) black optical 96-well μCLEAR-plates (Greiner Bio-One). Cells were transfected after 24 h using jetPEI (Polyplus-transfection SA) with 0.125 μg of DNA plasmids encoding the respective receptors and equal amounts of a plasmid encoding the G protein subunit Gα16 since this subunit is needed to trigger FPR-dependent calcium signals in HEK293 cells ([50], [70]). The medium of transfected cells was changed 24 h after transfection. For mock transfections, the proportion of the FPR-containing plasmids were substituted by an empty pcDNA3.1 vector.
(§4) Cell population responses of transfected HEK293T cells and U87 cells were recorded using a Flexstation III microplate reader (Molecular Devices). Briefly, cells were incubated with 2 μM Calbryte 520 AM (AAC Bioquest) for 2 h at room temperature in C1 assay buffer with 5 mM glucose (Carl Roth). Before each experiment, cells were rinsed three times with C1. Experiments with HEK293T cells were conducted 48 h after transfection, while experiments with U87 cells were performed 24 h after seeding. Acquisition of baseline fluorescence was performed for 25 s before ligand application, and cell population response was measured for 125 s after application.

hFPR1, hFPR2, hFPR3 = experiment: Ca2+ imaging, human FPRs taken together; assay type: cell-based; conditions: transfected HEK293T
hFPR2 = experiment: Ca2+ imaging, HEK293T transiently transfected with hFPR2; assay type: cell-based, human; conditions: for threshold for minimal detectable activation, hFPR2: Ca2+ imaging, transfected HEK293T + Gα16, Calbryte 520, C1 buffer pH 7.2; for threshold for minimal detectable activation, hFPR2 / hFPR2 response concentration: n = 3, N = 1; for hFPR2 response concentration: concentration response curves
Experimental: as §2, §3, §4

hFPR1 = experiment: Ca2+ imaging, HEK293T transiently transfected with hFPR1; assay type: cell-based, human; conditions: for threshold for minimal detectable activation, hFPR1: Ca2+ imaging; for threshold for minimal detectable activation, hFPR1 / sensitivity relative to full-length Aβ1-42, hFPR1: n = 3, N = 1; for sensitivity relative to full-length Aβ1-42, hFPR1: concentration response curves
hFPR3 = experiment: Ca2+ imaging, HEK293T transiently transfected with hFPR3; conditions: for threshold for minimal detectable activation, hFPR3: Ca2+ imaging, transfected HEK293T + Gα16, Calbryte 520, C1 buffer pH 7.2, n = 3, N = 1; for activation of hFPR3: 10 nM, n = 1, N = 3 (Fig. S6C)
Experimental: as §2, §3, §4

U87 cells [1] = experiment: Ca2+ imaging, U87 cells; conditions: for Ca2+ response of U87 cells to receptor subtype-specific activator: 10 nM, n = 3, N = 3
Experimental: Peptides in HBSS or Tris–NaCl were dissolved in an ultrasonic bath as described above. […] The Aβ17-40 peptide used throughout the main text was purchased from Anaspec/MoBiTec and validated with Aβ17-40 peptides from Sigma-Aldrich and Synpeptide. Aβ11-40 was obtained from Peptides&Elephants. […] Tert-Boc-FLFL (tBoc2) was purchased from Bachem and dissolved in DMSO at 30 mM. f-MLFYFS (Psy-SP6) and f-MAMKKL (Sal-SP4) were obtained from VCPBIO and dissolved at 10 mM in DMSO (Psy-SP6) or at 1 mM in C1 (SP4), respectively. WKWMVm-NH2 and WKWMVm-CHO were purchased from Proteogenix and VCPBIO, respectively, and dissolved as 1 mM stock solutions in C1. fMLF was purchased from Sigma-Aldrich and also dissolved at 1 mM in C1. All peptides were thawed at room temperature approximately 1 h before each functional experiment, as this time was needed to prepare the compound plates for each measurement.
U87 MG cells (CLS) were cultured in Minimum Essential medium (Biowest) supplemented with 10% (v/v) heat-inactivated FCS (Pan Biotech), 1 unit/ml penicillin-streptomycin (Biowest), 2 mM L-glutamine (Biowest), and 1 unit/ml non-essential amino acids (Biowest) until 50 to 60% confluence. For calcium imaging and immunostaining, on average 2500 cells were seeded in each well of PDL-coated (10 μg/ml in PBS, Sigma) black optical 96-well μCLEAR-plates (Greiner Bio-One).
as §4

mouse and human FPR1 = experiment: Ca2+ imaging, HEK293T with mouse and human FPR1 taken together; assay type: cell-based
glial cells = conditions: cited from earlier work
Text: (§1) In summary, our study provides a systematic overview over the capability of different mouse and human FPRs to interact with Aβ in different buffer systems. To our knowledge, we are the first to report an activation of hFPR3 by Aβ and the first to identify N-abridged Aβ fragments as activators of FPRs.

U87 cells [2] = experiment: Chemotaxis assay, U87 cells; assay type: cell-based, human; conditions: n = 3, N = 1; for migration (chemotaxis) of U87 cells: IncuCyte S3, ClearView plate, 24 h, 0.5% FCS; for migration of U87 cells towards receptor subtype-specific activator: 10 nM
Experimental: Cell migration assays were performed and analyzed with an IncuCyte S3 Life Cell Imaging System (EssenBio Science). […] Approximately, 1000 cells were placed into the top chamber of each well of a 96-well ClearView Plate (EssenBioscience). Chemoattractants were mixed in 200 μl medium and then placed in the corresponding bottom chambers. Image acquisition was performed hourly for 24 h on both sides of a membrane separating the top and bottom chambers. Subsequent analysis was performed using the IncuCyte S3 software.

human and mouse FPRs [3] = experiment: Ca2+ imaging, FPR-transfected HEK293T (several human and mouse FPRs taken together); assay type: cell-based; conditions: n = 3, N = 1; for Ca2+ responses on FPRs: 5 μM
Experimental: as §2, §3, §4

FPR1 = conditions: cited from earlier work
Text: as §1

APP/PS1 mice = conditions: cited from earlier work
Text: The activation of PRRs by Aβ has become a recent focus in AD research because they have a special ability to potently trigger the reactive state ([14], [25]). Among these PRRs, FPRs are one of the promising targets for AD research ([12]). They belong to a small gene family of G protein–coupled receptors with three members in humans and seven in mice ([26]). FPRs are primarily expressed in the innate and adaptive immune system, where they contribute to the detection and elimination of bacterial pathogens ([27], [28], [29], [30]). However, they are also expressed in a number of cell types in the ... || In summary, our study provides a systematic overview over the capability of different mouse and human FPRs to interact with Aβ in different buffer systems. To our knowledge, we are the first to report an activation of hFPR3 by Aβ and the first to identify N-abridged Aβ fragments as activators of FPRs.

human and mouse FPRs [4] = conditions: control ligand, 10 μM; cited from earlier work
Experimental: Cell population responses of transfected HEK293T cells and U87 cells were recorded using a Flexstation III microplate reader (Molecular Devices). Briefly, cells were incubated with 2 μM Calbryte 520 AM (AAC Bioquest) for 2 h at room temperature in C1 assay buffer with 5 mM glucose (Carl Roth). Before each experiment, cells were rinsed three times with C1. Experiments with HEK293T cells were conducted 48 h after transfection, while experiments with U87 cells were performed 24 h after seeding.

U87 cells [5] = experiment: Ca2+ imaging cross-desensitization, U87 cells; assay type: cell-based, human; conditions: n = 1, N = 3
Text: Left: Representative image of gel electrophoresis after reverse transcription polymerase chain reaction with primers for all hFPRs. Right: Quantification of complementary DNA for all FPRs obtained through reverse transcription quantitative polymerase chain reaction, n = 5, N = 2. One-way ANOVA test, Dunnett post hoc test. B, left: representative immunocytochemistry staining of U87 cells and transfected HEK293T cells with FPR subtype–specific antibodies (red) and nuclei staining (blue). For visibility, brightness and contrast were adjusted for U87 cells and HEK293T cells differently; for absolute intensity comparison pictures with equal settings for exposure time, brightness and contrast pictures are shown in Figure S5. Scale bars indicate 100 μm. Right: Quantification of the mean FPR staining in U87 cells (green) in comparison to FPR-transfected HEK293T cells (red). Analysis was performed on images acquired with the same settings. n = 2, N = 5 for U87 cells and n = 2, N = 2 for HEK293T cells. One-way ANOVA test, Tukey post hoc test. […] One-way ANOVA test, Dunnett post hoc test. […] Representative […] traces (left) and mean Ca^2+ peak responses (right) to a secondary Aβ17-40 stimulus after pre-application of SP4 or SP6 as a first stimulus, n = 1, N = 3; t test. […] One-way ANOVA test, Tukey post hoc test. All Error bars, S.D. ∗p ≤ 0.05, ∗∗p ≤ 0.01, ∗∗∗p ≤ 0.001; ns, no significance. […]

[6] = transfected HEK293T + Gα16, Calbryte 520, assay buffer C1 pH 7.2, Flexstation III, peptide stock 5 mM in DMSO
[7] = 10 μM tBoc2 co-applied with 5 μM Aβ17-40 (Fig. S6B)

Compound: C[S+](C)[O-] [DMSO, dimethyl sulfoxide]
- agonism at FPR1 and FPR2 (FPR1 and FPR2): agonist for FPR1 and FPR2

Compound: Aβ1-40: Amyloid beta peptide, human WT sequence, from Anaspec/MoBiTec
- threshold for minimal detectable activation, mFpr1 (mFpr1): 500 nM
- threshold for minimal detectable activation, mFpr2 (mFpr2): 5 µM
- response of hFPRs (in addition to hFPR2) (hFPR1, hFPR2, hFPR3): all other hFPRs also responded
- threshold for minimal detectable activation, hFPR2 (hFPR2): 3 µM
- threshold for minimal detectable activation, hFPR1 (hFPR1; transfected HEK293T + Gα16, Calbryte 520, assay buffer C1 pH 7.2, peptide stock 30 μM in C1): 3000 nM
- threshold for minimal detectable activation, hFPR3 (hFPR3): 3 µM

Compound: Aβ11-40: N-abridged naturally occurring Aβ variant, from Peptides&Elephants
- Ca2+ response of U87 cells (U87 cells [1]; n = 3, N = 1): induced a strong calcium flux; also recorded: pronounced activation of U87 cells
- U87 concentration response curve compared with FPR-transfected HEK293T cells (U87 cells [1]; n = 3, N = 1): clear correlation with the hFPR1 response; also recorded: remarkably similar to hFPR1
- threshold for minimal detectable activation, mFpr1 (mFpr1): 30 nM
- sensitivity relative to full-length Aβ1-42, mFpr1 (mFpr1): more than 10 fold
- activation of mouse and human FPR1 (in words) (mouse and human FPR1): very potent activators of mouse and human FPR1, acting at nanomolar concentrations; also recorded: drastically lower concentrations than longer peptides
- threshold for minimal detectable activation, mFpr2 (mFpr2): 1 µM
- mFpr2 response concentration (mFpr2): only responded to micromolar concentrations
- response of hFPRs (in addition to hFPR2) (hFPR1, hFPR2, hFPR3): all other hFPRs also responded
- threshold for minimal detectable activation, hFPR2 (hFPR2): 1 µM
- hFPR2 response concentration (hFPR2): only responded to micromolar concentrations
- activation of glial cells (glial cells): shown to activate glial cells
- migration (chemotaxis) of U87 cells (U87 cells [2]): Aβ11-40 but not Aβ17-40 evoked cell migration; also recorded: only Aβ11-40 but not Aβ17-40 induced migration; also recorded: Aβ11-40– but not Aβ17-40–induced chemotaxis of U87 cells
- Ca2+ responses on FPRs (human and mouse FPRs [3]): elicited responses on all FPRs that we could previously activate with the full-length Aβ1-42
- threshold for minimal detectable activation, hFPR1 (hFPR1; [6]): 100 nM
- sensitivity relative to full-length Aβ1-42, hFPR1 (hFPR1): more than 10 fold
- threshold for minimal detectable activation, hFPR3 (hFPR3): 1 µM

Compound: Aβ17-40: N-abridged naturally occurring Aβ variant, from Anaspec, validated with Sigma-Aldrich and Synpeptide peptides (LVFFAEDVGSNKGAIIGLMVGGVV; Amyloid-beta protein 40; UniProt P05067 688-711, looked up, fragment)
- Ca2+ response of U87 cells (U87 cells [1]; n = 3, N = 1): induced a strong calcium flux; also recorded: pronounced activation of U87 cells
- U87 concentration response curve compared with FPR-transfected HEK293T cells (U87 cells [1]; n = 3, N = 1): clear correlation with the hFPR1 response; also recorded: remarkably similar to hFPR1
- threshold for minimal detectable activation, mFpr1 (mFpr1): 30 nM
- sensitivity relative to full-length Aβ1-42, mFpr1 (mFpr1): more than 10 fold
- activation of mouse and human FPR1 (in words) (mouse and human FPR1): very potent activators of mouse and human FPR1, acting at nanomolar concentrations; also recorded: drastically lower concentrations than longer peptides
- threshold for minimal detectable activation, mFpr2 (mFpr2): 1 µM
- mFpr2 response concentration (mFpr2): only responded to micromolar concentrations
- response of hFPRs (in addition to hFPR2) (hFPR1, hFPR2, hFPR3): all other hFPRs also responded
- threshold for minimal detectable activation, hFPR2 (hFPR2): 1 µM
- hFPR2 response concentration (hFPR2): only responded to micromolar concentrations
- activation of glial cells (glial cells): shown to activate glial cells
- migration (chemotaxis) of U87 cells (U87 cells [2]): Aβ11-40 but not Aβ17-40 evoked cell migration; also recorded: only Aβ11-40 but not Aβ17-40 induced migration; also recorded: Aβ11-40– but not Aβ17-40–induced chemotaxis of U87 cells
- susceptibility of FPR responses to manufacturer-dependent effects (human and mouse FPRs [3]; 5 μM Aβ17-40 from Anaspec, Synpeptide, Sigma-Aldrich): less susceptible to manufacturer-dependent effects than full length Aβ
- Ca2+ responses on FPRs (human and mouse FPRs [3]): elicited responses on all FPRs that we could previously activate with the full-length Aβ1-42
- threshold for minimal detectable activation, hFPR1 (hFPR1; [6]): 100 nM
- sensitivity relative to full-length Aβ1-42, hFPR1 (hFPR1): more than 10 fold
- threshold for minimal detectable activation, hFPR3 (hFPR3): 1 µM

Compound: Aβ17-43: Aβ fragment of earlier studies (LVFFAEDVGSNKGAIIGLMVGGVVIAT; Amyloid-beta protein 42; UniProt P05067 688-714, looked up, fragment)
- activation of human glial cells (glial cells; human glial cells): only lead to a partial activation of human glial cells

Compound: Tert-Boc-FLFL [tBoc2, reference compound]
- inhibition of U87 Ca2+ response to Aβ11-40 / Aβ17-40 (U87 cells [1]; 10 μM tBoc2 vs 5 μM Aβ11-40 or Aβ17-40, n = 3, N = 1): completely abolished the responses
- antagonism at FPR2 (hFPR2; [7]): competitive antagonist of FPR1 and FPR2
- binding preference (FPR1): preferentially binds to FPR1
- effect on microglia reactivity, neuronal pathology and cognition (APP/PS1 mice): reduced microglia reactivity, decreased neuronal pathology, and improved cognitive performance
- antagonism at FPR1 (hFPR1; [7]): competitive antagonist of FPR1 and FPR2
- antagonism at FPR3 (hFPR3; 10 μM tBoc2 co-applied with 5 μM Aβ17-40, n = 1, N = 2): does not inhibit FPR3

Compound: WKWMVm-CHO
- activation of human and mouse FPRs (human and mouse FPRs [4]): potent activators of all three human and mouse FPRs

Compound: WKWMVm-NH2
- activation of human and mouse FPRs (human and mouse FPRs [4]): potent activators of all three human and mouse FPRs

Compound: f-MAMKKL [SP4, reference compound]
- Ca2+ response of U87 cells to receptor subtype-specific activator (U87 cells [1]): not to the hFPR2-specific SP4 stimulus
- effect of pre-application on U87 Ca2+ response to secondary Aβ17-40 stimulus (U87 cells [5]): not influenced by pre-application of the FPR2-specific agonist SP4
- migration of U87 cells towards receptor subtype-specific activator (U87 cells [2]): do not respond to the hFPR2 agonist SP4; also recorded: not towards the FPR2-specific SP4
- activation of hFPR3 (hFPR3): would not activate hFPR3

Compound: f-MLFYFS [SP6, reference compound]
- Ca2+ response of U87 cells to receptor subtype-specific activator (U87 cells [1]): U87 cells respond to the potent hFPR1 activator SP6; also recorded: only responded to the hFPR1-specific SP6 stimulus with a calcium signal
- effect of pre-application on U87 Ca2+ response to secondary Aβ17-40 stimulus (U87 cells [5]): abolished by the FPR1 activator SP6; also recorded: absent after pre-application of the FPR1-specific agonist SP6
- migration of U87 cells towards receptor subtype-specific activator (U87 cells [2]): migrate towards the hFPR1-stimulus SP6; also recorded: only migrated towards the FPR1-specific SP6
- activation of hFPR3 (hFPR3): would not activate hFPR3
